“And” between values parts separate entries of the source, which are not always exact repeats. Equal entries are not always repeated. Where two headings read alike, the source gives them in different places.
Assays:
SYK = SYK (Homo sapiens, UniProt P43405); assay: SYK inhibition luminescent assay; type: biochemical; parameters: 6xHis; made in house; host or cells: Sf9
Experimental: Luminescent assay was performed at A. N. Bakh Institute of Biochemistry (Moscow, Russia). Recombinant 6xHis-SYK kinase (expressed in Sf9 cells) was obtained as described previously. […] After incubation (20 min) Kinase-Glo reagent (Promega) was added. The luminescence was detected using the Fusion Universal Microplate Analyzer (PerkinElmer USA).

[1] = test system: SYK-mediated signaling in human B-cell lymphoma cells; assay: Detection of SYK activity in cells by Western blot; type: cell-based; conditions: 1, 3, 10 uM
Experimental: Western blot was performed at A. N. Bakh Institute of Biochemistry, Russia. Human B-cell lymphoma cells obtained from Russian collection cell cultures (RCCC) were cultured in 5% CO2 humidified atmosphere at 37 °C in RPMI 1640 supplemented with 100 U mL^–1 penicillin/streptomycin and 10% heat inactivated FBS. P3H3 cells (10^6 cells in 1 ml of RPMI media with 5% FBS) were incubated with test compound or vehicle control (DMSO, 1%) for one hour at 37 °C in a 5% CO2-incubator. Then anti-IgM (1 μg/mL) was added to activate B-cell receptors and incubation continued for additional 15 min. After that the cells were washed with cooled PBS buffer and were lysed in 200 μL of ice-cold lysis buffer (62,5 mM Tris–HCl, pH 6.8, 2% w/v SDS, 10% glycerin, 50 mM DTT, 0,01% w/v BPB). Then lysates were sonicated for 20 s in ice, heated to 95–100 °C for 5 min and centrifuged for 5 min. 20 μL of obtained samples were electrophoresed on 10% SDS–polyacrylamide gel (gel blocks: 90 × 60 × 1.5 mm; current intensity: 30 mA, time: 2.5–3 h) and transferred to nitrocellulose membranes (BioRad). Western blotting was carried out according to the Amersham Pharmacia Biotech ECL Western blotting protocol. […]

rat primary chondrocytes = assay: Hypertrophic-like changes in IL-1β treated primary chondrocytes; type: cell-based; conditions: for Relative fold expression, aggrecan / Relative fold expression, type II collagen: control = 1
Experimental: The experiment was performed at Atlantic Bone Screen, France. To isolate primary chondrocytes, Sprague Dawley 3 weeks old rats were euthanized and their hind limbs were collected. Knee cartilage shavings were digested with collagenase in serum-free Dulbecco’s Modified Eagle’s Medium (DMEM). Once digested, the cell suspension was centrifuged and resuspended in DMEM containing 10% fetal bovine serum (FBS). Then the cells were plated on tissue culture plastic at a density of 10 000 cells∙cm^−2 and were amplified in monolayer in culture medium (DMEM/FCS-10% supplemented with HEPES (25 mM)) until passage 1 and frozen at − 80 °C. Before study rat’s chondrocytes were seeded and cultured in monolayers in 12-well plates for 24 h. After that the cells were treated for three days with IL-1β (10 ng/mL) and MT-SYK-03; […] and vehicle (DMSO, 0.3% in cell medium) controls were also carried out in triplicate. At the end of the treatment, chondrocytes were lysed, and total RNA was purified using the NucleoSpin RNA II kit (Macherey Nagel). Total RNAs (2 μg) were retro-transcribed using M-MLV RT (Lifetechnologies) and obtained cDNAs (10 ng) were used for qPCR to determine steady-state levels of type II collagen and aggrecan mRNAs (levels of RPL19 and β-actin mRNAs were used as controls). Each reaction was set up as follows: 5 μL of iQ SYBR Green Supermix (Biorad, ref 1,708,882), 0.6 μL of forward primer (5 μM), and 0.6 μL of reverse primer (5 μM), 1.8 μL H2O, and 2 μL of cDNA. All qPCRs (72 qPCRs per marker) were run on a DNA Engine Thermal Cycler Chromo 4 in triplicates and analyzed using REST software.

COc1cc(Nc2ncnc(Nc3cc4c(cn3)NC(=O)C(C)(C)O4)n2)cc(OC)c1OC [MT-SYK-03]
IC50 (SYK; read-out: IC50, luminescent assay): 23 nM | IC50 (SYK; span of luminescent and radiometric assays, read-out: IC50 (SYK), as given in Figure 1c): 14 nM and 23 to 40 nM | Anti-IgM induced autophosphorylation of SYK and phosphorylation of CD19, BTK, ERK1/2 and JNK1/2 [1]: dose-dependently inhibited | Aggrecan gene expression (rat primary chondrocytes; IL-1β 10 ng/mL, three days): increased | Type II collagen gene expression (rat primary chondrocytes; IL-1β 10 ng/mL, three days): increased | Relative fold expression, aggrecan (rat primary chondrocytes; IL-1β + MT-SYK-03 0.4 μM): 0.20 | Relative fold expression, type II collagen (rat primary chondrocytes; IL-1β + MT-SYK-03 0.4 μM): 0.12 | Relative fold expression, aggrecan (rat primary chondrocytes; IL-1β + MT-SYK-03 2 μM): 0.42 | Relative fold expression, type II collagen (rat primary chondrocytes; IL-1β + MT-SYK-03 2 μM): 0.12 | Relative fold expression, aggrecan (rat primary chondrocytes; IL-1β + MT-SYK-03 10 μM): 0.46 | Relative fold expression, type II collagen (rat primary chondrocytes; IL-1β + MT-SYK-03 10 μM): 0.09

Reference: paper PMC8632988, “Inhibition of SYK and cSrc kinases can protect bone and cartilage in preclinical models of osteoarthritis and rheumatoid arthritis” (Scientific Reports, 2021)
